Reference: article PMC3574188 (Bioorganic & medicinal chemistry, 2012)
pKi: −log10 of the molar value.

Legend:
BoNT/A LC (1-425aa) [1] = target: T1, BoNT/A LC (1-425aa) (Clostridium botulinum, UniProt P0DPI0); format: biochemical
BoNT/A LC (1-425aa) [2] = target: T1, BoNT/A LC (1-425aa); experiment: biochemical
BoNT/A LC = details: cited from earlier work

T1 sequence (P0DPI0 1-425 limits assumed): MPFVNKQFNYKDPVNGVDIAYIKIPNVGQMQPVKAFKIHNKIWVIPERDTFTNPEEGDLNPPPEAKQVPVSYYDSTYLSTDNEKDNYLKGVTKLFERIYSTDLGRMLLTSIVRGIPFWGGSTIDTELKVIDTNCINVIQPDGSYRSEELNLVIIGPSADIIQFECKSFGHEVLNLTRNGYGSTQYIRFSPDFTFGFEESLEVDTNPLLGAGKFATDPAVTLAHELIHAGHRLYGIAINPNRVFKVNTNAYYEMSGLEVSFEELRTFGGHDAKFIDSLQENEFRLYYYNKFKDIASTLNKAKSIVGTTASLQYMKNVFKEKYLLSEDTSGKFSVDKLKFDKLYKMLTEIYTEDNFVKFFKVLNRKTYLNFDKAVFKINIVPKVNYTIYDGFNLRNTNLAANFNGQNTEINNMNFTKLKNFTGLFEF

| Structure (SMILES) | inhibitory potency against BoNT/A LC relative to parent 3a (BoNT/A LC (1-425aa) [1]) | pKi (BoNT/A LC (1-425aa) [2]) | fold improved potency (lower Ki) than parent lead 3a (BoNT/A LC (1-425aa) [2]) | fold lower IC50 value than parent 3a (BoNT/A LC (1-425aa) [1]) | also measured |
| --- | --- | --- | --- | --- | --- |
| O=C(CC12CC3CC(CC(Cl)(C3)C1)C2)NO [Compound 3f] | comparable with the lead molecule |  |  |  |  |
| O=C(CC12CC3CC(CC(Br)(C3)C1)C2)NO [Compound 3g] | comparable with the lead molecule |  |  |  |  |
| O=C(CC12CC3CC(C1)CC(C(=O)O)(C3)C2)NO [Compound 3h] | no activity |  |  |  |  |
| O=C(CC12CC3CC(C1)CC(c1ccc(Cl)cc1)(C3)C2)NO [Compound 3o] |  | ~7.52 | 17 fold | ~ 30 fold |  |
| O=C(CC12CC3CC(C1)CC(c1ccc(Br)cc1)(C3)C2)NO [Compound 3p] |  | ~7.52 | 17 fold | ~ 30 fold |  |
| O=C(C[C@@H](CCO)c1ccc(Cl)cc1Cl)NO [XI] |  |  |  |  | fold lower inhibition constant than the parent X (BoNT/A LC): ~2 fold |
